According to patent publication US20080132505A1 (Glaxo Group Limited, priority 2004, published 2008):
pEC50: −log10 of the molar value.

Molecular target: human cannabinoid CB2 receptor (Homo sapiens, UniProt P34972)
Assay: Cannabinoid CB2 receptor agonist activity (yeast reporter assay, FDGlu fluorescence)
Type: cell-based
Conditions: for pEC50: EC50 value at the cloned human cannabinoid CB2 receptor; for Emax: read-out: efficacy value (Emax relative to HU210) at the cloned human cannabinoid CB2 receptor
Method in brief: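 S. cerevisiae MMY23 expressing human CB2 with a Gpa1/Gαi3 chimeric G-protein, grown 24 h at 30 °C with agonist (1% DMSO) in selective media containing 10 mM 3-aminotriazole and FDGlu, pH 7.0. Fluorescein fluorescence (485/535 nm) fitted by four-parameter curve; Emax and EMR relative to HU210.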

human cannabinoid CB2 receptor, sequence (P34972 whole entry): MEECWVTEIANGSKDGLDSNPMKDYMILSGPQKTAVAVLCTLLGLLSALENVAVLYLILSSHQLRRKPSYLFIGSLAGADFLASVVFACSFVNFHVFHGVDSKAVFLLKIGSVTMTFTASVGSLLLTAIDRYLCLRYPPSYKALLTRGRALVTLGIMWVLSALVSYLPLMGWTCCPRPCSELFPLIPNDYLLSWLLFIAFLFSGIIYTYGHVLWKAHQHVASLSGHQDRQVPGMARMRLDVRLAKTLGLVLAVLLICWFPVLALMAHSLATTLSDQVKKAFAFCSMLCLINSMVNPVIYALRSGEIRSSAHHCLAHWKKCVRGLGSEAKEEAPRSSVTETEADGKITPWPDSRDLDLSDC

Structure (SMILES) | pEC50 | Emax
O=C(NCC1CCOCC1)c1cnc(Nc2ccc(F)c(Cl)c2)nc1C(F)(F)F [Example 215, 2-(4-Fluoro-3-chloro-phenylamino)-4-trifluoromethyl-pyrimidine-5-carboxylic acid (tetrahydro-pyran-4-ylmethyl)-amide] | 6.52 to 7.70 | > 50%
O=C(NCC1CCOCC1)c1cnc(Nc2ccc(OC(F)(F)F)c(Cl)c2)nc1C(F)(F)F [Example 216, 2-(4-Trifluoromethoxy-3-chloro-phenylamino)-4-trifluoromethyl-pyrimidine-5-carboxylic acid (tetrahydro-pyran-4-ylmethyl)-amide] | 6.52 to 7.70 | > 50%
O=C(NCC1CCOCC1)c1cnc(Nc2ccc(C(F)(F)F)c(F)c2)nc1C(F)(F)F [Example 218, 2-(4-Trifluoromethyl-3-fluoro-phenylamino)-4-trifluoromethyl-pyrimidine-5-carboxylic acid (tetrahydro-pyran-4-ylmethyl)-amide] | 6.52 to 7.70 | > 50%
N#Cc1ccc(Nc2ncc(C(=O)NCC3CCCC3)c(C(F)(F)F)n2)cc1Cl [Example 219, 2-(4-Cyano-3-chloro-phenylamino)-4-trifluoromethyl-pyrimidine-5-carboxylic acid cyclopentylmethyl-amide] | 6.52 to 7.70 | > 50%
O=C(NC1CCS(=O)(=O)CC1)c1cnc(Nc2ccc(Cl)cc2Cl)nc1C(F)(F)F [Example 220, 2-(2,4-Dichloro-phenylamino)-4-trifluoromethyl-pyrimidine-5-carboxylic acid (1,1-dioxo-hexahydro-1l^6-thiopyran-4-yl)-amide] | 6.52 to 7.70 | > 50%
O=C(NCC1CCCCC1)c1cnc(Nc2ccc(F)cc2F)nc1C(F)(F)F [Example 221, 2-(2,4-Difluoro-phenylamino)-4-trifluoromethyl-pyrimidine-5-carboxylic acid cyclohexylmethyl-amide] | 6.52 to 7.70 | > 50%
O=C(NCC1CCCCC1)c1cnc(Nc2ccc(F)cc2Cl)nc1C(F)(F)F [Example 222, 2-(2-Chloro-4-fluoro-phenylamino)-4-trifluoromethyl-pyrimidine-5-carboxylic acid cyclohexylmethyl-amide] | 6.52 to 7.70 | > 50%
O=C(NCC1CCC1)c1cnc(Nc2ccc(F)cc2F)nc1C(F)(F)F [Example 223, 2-(2,4-Difluoro-phenylamino)-4-trifluoromethyl-pyrimidine-5-carboxylic acid cyclobutylmethyl-amide] | 6.52 to 7.70 | > 50%
O=C(NCC1CCC1)c1cnc(Nc2ccc(F)cc2Cl)nc1C(F)(F)F [Example 224, 2-(2-Chloro-4-fluoro-phenylamino)-4-trifluoromethyl-pyrimidine-5-carboxylic acid cyclobutylmethyl-amide] | 6.52 to 7.70 | > 50%
O=C(NCC1CCCCC1)c1cnc(Nc2ccc(Br)cc2Cl)nc1C(F)(F)F [Example 225, 2-(2-Chloro-4-bromo-phenylamino)-4-trifluoromethyl-pyrimidine-5-carboxylic acid cyclohexylmethyl-amide] | 6.52 to 7.70 | > 50%
O=C(NCC1CCCCC1)c1cnc(Nc2ccc(Cl)cc2F)nc1C(F)(F)F [Example 226, 2-(2-Fluoro-4-chloro-phenylamino)-4-trifluoromethyl-pyrimidine-5-carboxylic acid cyclohexylmethyl-amide] | 6.52 to 7.70 | > 50%
O=C(NCC1CCC1)c1cnc(Nc2ccc(Br)cc2Cl)nc1C(F)(F)F [Example 227, 2-(2-Chloro-4-bromo-phenylamino)-4-trifluoromethyl-pyrimidine-5-carboxylic acid cyclobutylmethyl-amide] | 6.52 to 7.70 | > 50%
O=C(NCC1CCC1)c1cnc(Nc2ccc(Br)cc2F)nc1C(F)(F)F [Example 229, 2-(2-Fluoro-4-bromo-phenylamino)-4-trifluoromethyl-pyrimidine-5-carboxylic acid cyclobutylmethyl-amide] | 6.52 to 7.70 | > 50%
O=C(NCC1CCC1)c1cnc(Nc2ccc(Cl)cc2Br)nc1C(F)(F)F [Example 230, 2-(2-Bromo-4-chloro-phenylamino)-4-trifluoromethyl-pyrimidine-5-carboxylic acid cyclobutylmethyl-amide] | 6.52 to 7.70 | > 50%
O=C(NCC1CCCCC1)c1cnc(Nc2ccc(Br)cc2F)nc1C(F)(F)F [Example 231, 2-(2-Fluoro-4-bromo-phenylamino)-4-trifluoromethyl-pyrimidine-5-carboxylic acid cyclohexylmethyl-amide] | 6.52 to 7.70 | > 50%
O=C(NCC1CCOCC1)c1cnc(Nc2ccc(Br)cc2F)nc1C(F)(F)F [Example 232, 2-(2-Fluoro-4-bromo-phenylamino)-4-trifluoromethyl-pyrimidine-5-carboxylic acid (tetrahydro-pyran-4-ylmethyl)-amide] | 6.52 to 7.70 | > 50%

Structure (SMILES) | pEC50 | Emax
O=C(NCC1CCOCC1)c1cnc(Nc2ccc(F)cc2Cl)nc1C(F)(F)F [Example 233, 2-(2-Chloro-4-fluoro-phenylamino)-4-trifluoromethyl-pyrimidine-5-carboxylic acid (tetrahydro-pyran-4-ylmethyl)-amide] | 6.52 to 7.70 | > 50%
O=C(NCC1CCOCC1)c1cnc(Nc2ccc(Br)cc2Cl)nc1C(F)(F)F [Example 234, 2-(2-Chloro-4-bromo-phenylamino)-4-trifluoromethyl-pyrimidine-5-carboxylic acid (tetrahydro-pyran-4-ylmethyl)-amide] | 6.52 to 7.70 | > 50%
N#Cc1ccc(Nc2ncc(C(=O)NCC3CCOCC3)c(C(F)(F)F)n2)c(Cl)c1 [Example 235, 2-(2-Chloro-4-cyano-phenylamino)-4-trifluoromethyl-pyrimidine-5-carboxylic acid (tetrahydro-pyran-4-ylmethyl)-amide] | 6.52 to 7.70 | > 50%
O=C(NCC1CCOCC1)c1cnc(Nc2ccc(C(F)(F)F)cc2Cl)nc1C(F)(F)F [Example 236, 2-(2-Chloro-4-trifluoromethyl-phenylamino)-4-trifluoromethyl-pyrimidine-5-carboxylic acid (tetrahydro-pyran-4-ylmethyl)-amide] | 6.52 to 7.70 | > 50%
N#Cc1ccc(Nc2ncc(C(=O)NCC3CCCCC3)c(C(F)(F)F)n2)c(Cl)c1 [Example 237, 2-(2-Chloro-4-cyano-phenylamino)-4-trifluoromethyl-pyrimidine-5-carboxylic acid cyclohexylmethyl-amide] | 6.52 to 7.70 | > 50%
O=C(NCC1CCCCC1)c1cnc(Nc2ccc(Cl)cc2Br)nc1C(F)(F)F [Example 238, 2-(2-Bromo-4-chloro-phenylamino)-4-trifluoromethyl-pyrimidine-5-carboxylic acid cyclohexylmethyl-amide] | 6.52 to 7.70 | > 50%
O=C(NCC1CCOCC1)c1cnc(Nc2ccc(Cl)cc2Br)nc1C(F)(F)F [Example 239, 2-(2-Bromo-4-chloro-phenylamino)-4-trifluoromethyl-pyrimidine-5-carboxylic acid (tetrahydro-pyran-4-ylmethyl)-amide] | 6.52 to 7.70 | > 50%
O=C(NCC1CC1)c1cnc(Nc2cccc(Br)c2)nc1C(F)(F)F [Example 240, 2-(3-Bromophenylamino)-4-trifluoromethyl-pyrimidine-5-carboxylic acid cyclopropylmethyl-amide] | 6.52 to 7.70 | > 50%
O=C(NCC1CC1)c1cnc(Nc2ccc(Cl)cc2Cl)nc1C(F)(F)F [Example 241, 2-(2,4-Dichlorophenylamino)-4-trifluoromethylpyrimidine-5-carboxylic acid cyclopropylmethyl-amide] | 6.52 to 7.70 | > 50%
O=C(NCC1CCCCC1)c1cnc(Nc2cccc(F)c2F)nc1C(F)(F)F [Example 242, 2-(2,3-Difluorophenylamino)-4-trifluoromethyl-pyrimidine-5-carboxylic acid cyclohexylmethyl-amide] | 6.52 to 7.70 | > 50%
O=C(NCC1CCCCC1)c1cnc(Nc2cccc(C(F)(F)F)c2F)nc1C(F)(F)F [Example 243, 2-(2-Fluoro-3-trifluoromethyl-phenylamino)-4-trifluoromethyl-pyrimidine-5-carboxylic acid cyclohexylmethyl-amide] | 6.52 to 7.70 | > 50%
Cc1ccc(Nc2ncc(C(=O)NCC3CCCCC3)c(C(F)(F)F)n2)c(Cl)c1 [Example 244, 2-(2-Chloro-4-methylphenylamino)-4-trifluoromethyl-pyrimidine-5-carboxylic acid cyclohexylmethyl-amide] | 6.52 to 7.70 | > 50%
COc1cc(Nc2ncc(C(=O)NCC3CCCCC3)c(C(F)(F)F)n2)ccc1Cl [Example 245, 2-(4-Chloro-3-methoxyphenylamino)-4-trifluoromethyl-pyrimidine-5-carboxylic acid cyclohexylmethyl-amide] | 6.52 to 7.70 | > 50%
Cc1ccc(Cl)cc1Nc1ncc(C(=O)NCC2CCCCC2)c(C(F)(F)F)n1 [Example 246, 2-(5-Chloro-2-methylphenylamino)-4-trifluoromethyl-pyrimidine-5-carboxylic acid cyclohexylmethyl-amide] | 6.52 to 7.70 | > 50%
O=C(NCC1CCCC1)c1cnc(Nc2cccc(Cl)c2F)nc1C(F)(F)F [Example 248, 2-(3-Chloro-2-fluoro-phenylamino)-4-trifluoromethyl-pyrimidine-5-carboxylic acid cyclopentylmethyl-amide] | 6.52 to 7.70 | > 50%
O=C(NCC1CCCC1)c1cnc(Nc2cc(F)ccc2Cl)nc1C(F)(F)F [Example 249, 2-(2-Chloro-5-fluoro-phenylamino)-4-trifluoromethyl-pyrimidine-5-carboxylic acid cyclopentylmethyl-amide] | 6.52 to 7.70 | > 50%
